Consider one compound from ChEMBL document CHEMBL1156052, “Discovery of 1-[4-(3-chlorophenylamino)-1-methyl-1H-pyrrolo[3,2-c]pyridin-7-yl]-1-morpholin-4-ylmethanone (GSK554418A), a brain penetrant 5-azaindole CB2 agonist for the treatment of chronic pain” (J Med Chem, 2009).

In series [1] the target is Galanin receptor type 2 (Homo sapiens) (UniProt O43603). Nature of the series: Binding affinity to human GAL2 receptor at 1 uM.
The target of series [2] is Histamine H1 receptor (Homo sapiens) (UniProt P35367). Nature of the series: Binding affinity to human histamine H1 receptor at 1 uM.
Series [3] addresses Muscarinic acetylcholine receptor M4 (Homo sapiens) (UniProt P08173). Nature of the series: Binding affinity to human muscarinic M4 receptor at 1 uM.
Series [4] in a line: Oral bioavailability in Sprague-Dawley rat at 2 mg/kg after 0.8 hrs. The series is classed as ADME, organism-based. The note with it: in vivo.
The next series has as its system Rattus norvegicus. Nature of the series: Antihyperalgesic activity in complete Freund's adjuvant rat model of inflammatory pain assessed as reversal of hyperalgesia at 1 mg/kg, po administered as single dose. The series is classed as functional, organism-based. Details: dose 1 mg/kg.
A short description of series [5]: Drug level in blood of rat joint model of chronic pain at 10 mg/kg, po BID for 5 days. Type of series: ADME, organism-based. Also noted: dose 10 mg/kg, route oral. The note with it: read-out: Drug uptake.
Series [6] can be described thus: Drug level in blood of rat joint model of chronic pain at 3 mg/kg, po BID for 5 days. Type of series: ADME, organism-based. Details: dose 3 mg/kg, route oral. Particulars: read-out: Drug uptake.
A further series has as its target Cytochrome P450 1A2 (Homo sapiens, UniProt P05177). Put plainly: Inhibition of CYP1A2. Type of series: ADME.
A further series has as its target Cytochrome P450 2C19 (Homo sapiens, UniProt P33261). Put plainly: Inhibition of CYP2C19. The series is classed as ADME.
In a further series the target is Cytochrome P450 2D6 (Homo sapiens, UniProt P10635). Put plainly: Inhibition of CYP2D6. Type of series: ADME.
Series [7] is described as follows: Solubility in simulated intestinal fluid at pH 5. The series is classed as physicochemical.
In a further series the target is Cannabinoid receptor 2 (Homo sapiens, UniProt P34972). Nature of the series: Agonist activity at human recombinant cannabinoid CB2 receptor expressed in CHOK1 cells assessed as forskolin-induced cAMP production at 20 uM by luciferase assay relative to HU210. Type of series: functional, cell-based. Particulars: CHO-K1.
Series [8] has as its target Alpha-2A adrenergic receptor (Homo sapiens) (UniProt P08913). Nature of the series: Binding affinity to adrenergic alpha2 receptor at 1 uM.
The target of series [9] is 5-hydroxytryptamine receptor 2A (Homo sapiens) (UniProt P28223). Put plainly: Binding affinity to 5HT2A receptor at 1 uM.
Series [10] has as its target Adenosine receptor A1 (Homo sapiens) (UniProt P30542). Nature of the series: Binding affinity to human adenosine A1 receptor at 1 uM.
For series [11], the target named is Beta-1 adrenergic receptor (Homo sapiens) (UniProt P08588). Nature of the series: Binding affinity to human beta-1 adrenergic receptor at 1 uM.
The nature of series [12]: Ratio of drug level in brain to blood in rat 130 mg/kg, po after 3 hrs. Type of series: ADME, organism-based. Details: dose 130 mg/kg, route oral.
Series [13] can be described thus: Ratio of drug level in brain to blood in rat 130 mg/kg, po after 5 hrs. Type of series: ADME, organism-based. Also noted: dose 130 mg/kg, route oral.

Structures are written as SMILES. Values after ≈ are worked out from the molar mass of the structure shown. Active and inactive are the calls of the source. The calls are words filed in the database; no cut-off is given here.

Sequence of 5-hydroxytryptamine receptor 2A (Homo sapiens) (P28223 whole entry): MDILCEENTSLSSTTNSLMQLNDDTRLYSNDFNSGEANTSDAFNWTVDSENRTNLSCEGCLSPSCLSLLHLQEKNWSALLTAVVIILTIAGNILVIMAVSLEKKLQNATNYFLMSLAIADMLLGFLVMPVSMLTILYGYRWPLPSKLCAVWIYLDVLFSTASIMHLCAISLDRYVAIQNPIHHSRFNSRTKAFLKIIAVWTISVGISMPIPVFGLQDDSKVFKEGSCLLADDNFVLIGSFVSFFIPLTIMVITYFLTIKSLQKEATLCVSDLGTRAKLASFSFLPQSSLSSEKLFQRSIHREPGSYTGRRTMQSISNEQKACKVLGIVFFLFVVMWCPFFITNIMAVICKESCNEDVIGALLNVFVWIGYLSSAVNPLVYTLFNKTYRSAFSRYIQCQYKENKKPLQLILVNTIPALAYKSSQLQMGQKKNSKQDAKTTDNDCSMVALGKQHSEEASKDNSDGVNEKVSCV
Sequence of Adenosine receptor A1 (Homo sapiens) (P30542 whole entry): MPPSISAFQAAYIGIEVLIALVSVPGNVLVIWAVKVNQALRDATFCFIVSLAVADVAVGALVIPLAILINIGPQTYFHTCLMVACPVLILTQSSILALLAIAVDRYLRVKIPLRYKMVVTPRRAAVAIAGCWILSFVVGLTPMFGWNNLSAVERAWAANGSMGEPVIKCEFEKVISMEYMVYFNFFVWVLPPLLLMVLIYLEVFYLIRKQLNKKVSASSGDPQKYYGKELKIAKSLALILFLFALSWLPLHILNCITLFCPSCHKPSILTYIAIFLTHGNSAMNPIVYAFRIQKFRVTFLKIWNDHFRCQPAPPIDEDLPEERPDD
Sequence of Muscarinic acetylcholine receptor M4 (Homo sapiens) (P08173 whole entry): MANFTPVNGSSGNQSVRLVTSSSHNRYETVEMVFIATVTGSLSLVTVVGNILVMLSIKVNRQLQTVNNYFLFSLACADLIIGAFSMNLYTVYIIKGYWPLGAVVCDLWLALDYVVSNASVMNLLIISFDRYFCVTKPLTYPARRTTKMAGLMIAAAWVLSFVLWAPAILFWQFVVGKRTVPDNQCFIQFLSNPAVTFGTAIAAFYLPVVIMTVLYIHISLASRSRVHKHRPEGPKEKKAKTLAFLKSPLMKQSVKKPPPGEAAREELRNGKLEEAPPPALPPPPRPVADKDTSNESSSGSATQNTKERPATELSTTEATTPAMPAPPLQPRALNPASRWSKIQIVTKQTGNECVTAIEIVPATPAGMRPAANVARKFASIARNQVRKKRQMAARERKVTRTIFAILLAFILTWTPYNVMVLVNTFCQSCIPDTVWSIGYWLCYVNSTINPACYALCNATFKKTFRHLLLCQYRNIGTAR
Sequence of Cytochrome P450 2D6 (P10635 whole entry): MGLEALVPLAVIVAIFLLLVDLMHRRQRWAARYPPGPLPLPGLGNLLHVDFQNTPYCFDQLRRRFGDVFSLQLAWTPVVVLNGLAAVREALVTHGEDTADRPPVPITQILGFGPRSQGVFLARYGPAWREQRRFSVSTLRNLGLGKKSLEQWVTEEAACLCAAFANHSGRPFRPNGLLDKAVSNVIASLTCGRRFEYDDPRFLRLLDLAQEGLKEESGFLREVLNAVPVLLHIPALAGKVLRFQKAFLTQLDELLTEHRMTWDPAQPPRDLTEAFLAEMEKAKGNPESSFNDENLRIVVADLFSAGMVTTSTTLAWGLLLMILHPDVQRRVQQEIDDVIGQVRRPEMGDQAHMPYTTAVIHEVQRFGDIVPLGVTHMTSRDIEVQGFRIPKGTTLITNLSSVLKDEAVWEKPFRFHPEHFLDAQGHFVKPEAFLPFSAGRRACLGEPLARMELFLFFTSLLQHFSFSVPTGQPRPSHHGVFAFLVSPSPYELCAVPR
Sequence of Beta-1 adrenergic receptor (Homo sapiens) (P08588 whole entry, looked up): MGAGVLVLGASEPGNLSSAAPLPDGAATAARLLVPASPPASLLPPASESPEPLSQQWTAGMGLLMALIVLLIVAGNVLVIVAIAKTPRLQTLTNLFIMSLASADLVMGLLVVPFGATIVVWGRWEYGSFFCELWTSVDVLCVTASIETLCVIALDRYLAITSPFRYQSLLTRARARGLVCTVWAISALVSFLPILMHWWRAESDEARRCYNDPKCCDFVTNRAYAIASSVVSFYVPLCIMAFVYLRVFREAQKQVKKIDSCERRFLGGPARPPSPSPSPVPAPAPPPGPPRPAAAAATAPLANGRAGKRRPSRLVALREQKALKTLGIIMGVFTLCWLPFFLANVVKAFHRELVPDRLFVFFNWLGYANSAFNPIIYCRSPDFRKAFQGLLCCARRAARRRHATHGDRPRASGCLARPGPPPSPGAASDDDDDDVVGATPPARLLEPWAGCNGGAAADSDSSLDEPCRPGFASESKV
Sequence of Histamine H1 receptor (Homo sapiens) (P35367 whole entry): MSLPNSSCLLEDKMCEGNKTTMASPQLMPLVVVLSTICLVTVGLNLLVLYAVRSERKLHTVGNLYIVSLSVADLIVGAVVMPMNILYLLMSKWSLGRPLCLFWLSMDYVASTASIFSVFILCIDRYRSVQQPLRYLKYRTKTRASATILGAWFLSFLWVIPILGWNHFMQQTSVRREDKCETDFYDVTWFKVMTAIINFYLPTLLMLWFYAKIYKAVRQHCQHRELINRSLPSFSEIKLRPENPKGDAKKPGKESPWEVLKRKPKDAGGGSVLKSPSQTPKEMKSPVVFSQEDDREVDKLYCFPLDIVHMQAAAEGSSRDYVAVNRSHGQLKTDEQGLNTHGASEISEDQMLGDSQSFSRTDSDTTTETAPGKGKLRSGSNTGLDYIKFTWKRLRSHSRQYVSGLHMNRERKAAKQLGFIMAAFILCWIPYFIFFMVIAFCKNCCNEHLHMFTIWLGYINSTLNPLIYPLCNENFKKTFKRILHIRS
Sequence of Cannabinoid receptor 2 (P34972 whole entry): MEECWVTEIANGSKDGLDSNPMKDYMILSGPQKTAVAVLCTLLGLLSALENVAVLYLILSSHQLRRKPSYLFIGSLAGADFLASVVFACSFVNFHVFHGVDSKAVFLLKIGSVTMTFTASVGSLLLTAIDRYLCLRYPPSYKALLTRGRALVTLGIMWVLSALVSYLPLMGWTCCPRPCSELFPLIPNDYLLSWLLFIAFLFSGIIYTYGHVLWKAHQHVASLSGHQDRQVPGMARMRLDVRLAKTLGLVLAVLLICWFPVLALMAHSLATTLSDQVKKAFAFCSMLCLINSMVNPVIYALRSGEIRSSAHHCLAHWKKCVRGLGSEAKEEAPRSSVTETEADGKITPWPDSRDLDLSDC
Sequence of Cytochrome P450 1A2 (P05177 whole entry): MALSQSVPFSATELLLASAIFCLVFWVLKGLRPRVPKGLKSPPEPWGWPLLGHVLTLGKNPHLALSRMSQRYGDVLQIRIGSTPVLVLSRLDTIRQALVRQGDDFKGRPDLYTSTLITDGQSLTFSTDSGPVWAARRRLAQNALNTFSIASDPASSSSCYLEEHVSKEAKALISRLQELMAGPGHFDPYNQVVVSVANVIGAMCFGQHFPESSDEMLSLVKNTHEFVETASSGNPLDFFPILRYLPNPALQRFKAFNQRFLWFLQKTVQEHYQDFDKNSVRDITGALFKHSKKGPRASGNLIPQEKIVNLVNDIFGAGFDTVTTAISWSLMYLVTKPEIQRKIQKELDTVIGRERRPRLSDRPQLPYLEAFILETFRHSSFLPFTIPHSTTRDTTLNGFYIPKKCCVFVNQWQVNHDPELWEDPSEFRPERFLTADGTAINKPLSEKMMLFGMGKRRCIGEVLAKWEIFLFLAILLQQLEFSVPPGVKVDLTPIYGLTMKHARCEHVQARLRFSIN
Sequence of Galanin receptor type 2 (Homo sapiens) (O43603 whole entry): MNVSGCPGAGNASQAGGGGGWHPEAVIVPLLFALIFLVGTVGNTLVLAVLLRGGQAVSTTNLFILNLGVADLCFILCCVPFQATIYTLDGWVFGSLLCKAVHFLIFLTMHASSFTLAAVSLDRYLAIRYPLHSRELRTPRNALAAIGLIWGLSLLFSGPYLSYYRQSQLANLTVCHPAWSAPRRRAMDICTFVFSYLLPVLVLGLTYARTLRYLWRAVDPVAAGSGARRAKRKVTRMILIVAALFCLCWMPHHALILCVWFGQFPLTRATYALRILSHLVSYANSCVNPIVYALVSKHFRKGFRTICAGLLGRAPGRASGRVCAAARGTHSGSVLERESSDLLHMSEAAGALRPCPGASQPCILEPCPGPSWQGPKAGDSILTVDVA
Sequence of Cytochrome P450 2C19 (P33261 whole entry): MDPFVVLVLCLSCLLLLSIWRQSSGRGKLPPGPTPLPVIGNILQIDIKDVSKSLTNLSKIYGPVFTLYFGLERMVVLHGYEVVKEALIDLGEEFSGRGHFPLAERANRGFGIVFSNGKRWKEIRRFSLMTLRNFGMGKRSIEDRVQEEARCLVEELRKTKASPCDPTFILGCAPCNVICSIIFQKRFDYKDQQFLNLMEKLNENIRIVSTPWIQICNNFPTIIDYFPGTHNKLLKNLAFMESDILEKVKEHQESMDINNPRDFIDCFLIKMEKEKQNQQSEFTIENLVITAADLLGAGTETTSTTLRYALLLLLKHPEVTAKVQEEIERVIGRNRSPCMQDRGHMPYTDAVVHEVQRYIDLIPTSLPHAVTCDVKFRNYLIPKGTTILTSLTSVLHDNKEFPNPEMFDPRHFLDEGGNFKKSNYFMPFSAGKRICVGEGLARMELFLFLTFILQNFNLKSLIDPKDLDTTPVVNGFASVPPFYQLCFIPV
Sequence of Alpha-2A adrenergic receptor (Homo sapiens) (P08913 whole entry): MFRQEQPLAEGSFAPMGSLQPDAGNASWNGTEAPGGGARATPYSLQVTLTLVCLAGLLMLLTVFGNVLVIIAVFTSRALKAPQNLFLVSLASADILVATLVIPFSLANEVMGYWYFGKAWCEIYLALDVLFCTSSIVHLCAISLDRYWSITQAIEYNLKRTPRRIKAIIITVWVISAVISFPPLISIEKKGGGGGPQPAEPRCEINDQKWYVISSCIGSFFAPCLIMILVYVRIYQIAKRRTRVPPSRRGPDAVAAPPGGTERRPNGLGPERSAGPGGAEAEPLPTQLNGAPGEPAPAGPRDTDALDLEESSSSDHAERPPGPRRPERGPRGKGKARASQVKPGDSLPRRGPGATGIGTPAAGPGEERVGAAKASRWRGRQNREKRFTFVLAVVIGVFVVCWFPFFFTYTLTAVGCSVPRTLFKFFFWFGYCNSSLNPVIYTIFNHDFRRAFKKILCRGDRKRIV

Consider `Cn1ccc2c(Nc3cccc(Cl)c3)ncc(C(=O)N3CCOCC3)c21`, for which the Activity is < 10% in [1]; < 10% in [2]; < 10% in [3]; 25% in series [8]; 11% in series [9]; < 10% in series [10]. Besides, the Activity in [11] is < 10%. The same compound gave a bioavailability in series [4] of 82%. In the series on Rattus norvegicus, the result was Active. Also, the concentration at 120 h in series [5] was determined as 6.1 µM; in series [6] it was 1.8 µM. For the same compound, the 50% inhibitory concentration (IC50) on Cytochrome P450 1A2 was > 100 µM; against Cytochrome P450 2C19, 41 µM; on Cytochrome P450 2D6 it was 21 µM. This compound also gave a solubility in series [7] of 590 µg/mL (≈ 1590 µM). Besides, the Efficacy at Cannabinoid receptor 2 was 100%. Besides, the Kp at 3 h in [12] amounted to 1. In series [13], the Kp at 5 h turned out to be 1.
